Experimental data taken from patent US10723692B2, “Lipids and lipid nanoparticle formulations for delivery of nucleic acids” (Acuitas Therapeutics, Inc., priority 2014, dated 2020).
Read-outs that look alike come from different tables or passages of the source.

Assays:
[1] = tested on: luciferase expression in the liver; experiment: In vivo luciferase mRNA expression rodent model (LNP, liver luciferase); set-up: species or system C57BL/6 mice; settings: tail vein, liver 4 hours; for Liver Luc @ 0.3 mg/kg (ng luc/g liver): 0.3 mg mRNA/kg; for Liver Luc @ 1.0 mg/kg (ng luc/g liver): 1.0 mg mRNA/kg
Description: Cationic lipid (MC3), DSPC, cholesterol and PEG-lipid were solubilized in ethanol at a molar ratio of 50:10:38.5:1.5. Lipid nanoparticles (LNP) were prepared at a total lipid to mRNA weight ratio of approximately 10:1 to 30:1. Briefly, the mRNA was diluted to 0.2 mg/mL in 10 to 50 mM citrate buffer, pH 4. Syringe pumps were used to mix the ethanolic lipid solution with the mRNA aqueous solution at a ratio of about 1:5 to 1:3 (vol/vol) with total flow rates above 15 ml/min. The ethanol was then removed and the external buffer replaced with PBS by dialysis. Finally, the lipid nanoparticles were filtered through a 0.2 μm pore sterile filter. Lipid nanoparticle particle size was 70-90 nm diameter as determined by quasi-elastic light scattering using a Nicomp 370 submicron particle sizer (Santa Barbara, Calif.).
Studies were performed in 6-8 week old female C57BL/6 mice (Charles River) according to guidelines established by an institutional animal care committee (ACC) and the Canadian Council on Animal Care (CCAC). Varying doses of mRNA-lipid nanoparticle were systemically administered by tail vein injection and animals euthanized at specific time points (1, 2, 4, 8 and 24 hrs) post-administration. Liver and spleen were collected in pre-weighted tubes, weights determined, immediately snap frozen in liquid nitrogen and stored at −80° C. until processing for analysis.
For liver, approximately 50 mg was dissected for analyses in a 2 mL FastPrep tubes (MP Biomedicals, Solon Ohio). ¼″ ceramic sphere (MP Biomedicals) was added to each tube and 500 μL of Glo Lysis Buffer—GLB (Promega, Madison Wis.) equilibrated to room temperature was added to liver tissue. Liver tissues were homogenized with the FastPrep24 instrument (MP Biomedicals) at 2×6.0 m/s for 15 seconds. Homogenate was incubated at room temperature for 5 minutes prior to a 1:4 dilution in GLB and assessed using SteadyGlo Luciferase assay system (Promega). Specifically, 50 μL of diluted tissue homogenate was reacted with 50 μL of SteadyGlo substrate, shaken for 10 seconds followed by 5 minute incubation and then quantitated using a CentroXS^3 LB 960 luminometer (Berthold Technologies, Germany). The amount of protein assayed was determined by using the BCA protein assay kit (Pierce, Rockford Ill.). Relative luminescence units (RLU) were then normalized to total ug protein assayed. To convert RLU to ng luciferase a standard curve was generated with QuantiLum Recombinant Luciferase (Promega). Based in the data provided in FIG. 1, the four-hour time point was chosen for efficacy evaluation of the lipid formulations (see EXAMPLE 48).
The FLuc mRNA (L-6107) from Trilink Biotechnologies will express a luciferase protein, originally isolated from the firefly, Photinus pyralis. FLuc is commonly used in mammalian cell culture to measure both gene expression and cell viability. It emits bioluminescence in the presence of the substrate, luciferin. This capped and polyadenylated mRNA is fully substituted with 5-methylcytidine and pseudouridine.
The cationic lipids shown in Table 2 have previously been tested with nucleic acids. For comparative purposes, these lipids were also used to formulate lipid nanoparticles containing the FLuc mRNA (L-6107) using an in line mixing method, as described in EXAMPLE 47 and in PCT/US10/22614, which is hereby incorporated by reference in its entirety. Lipid nanoparticles were formulated using the following molar ratio: 50% Cationic lipid/10% distearoylphosphatidylcholine (DSPC)/38.5% Cholesterol/1.5% PEG lipid (“PEG-DMG”, i.e., (1-(monomethoxy-polyethyleneglycol)-2,3-dimyristoylglycerol, with an average PEG molecular weight of 2000). Relative activity was determined by measuring luciferase expression in the liver 4 hours following administration via tail vein injection as described in EXAMPLE 47. The activity was compared at a dose of 0.3 and 1.0 mg mRNA/kg and expressed as ng luciferase/g liver measured 4 hours after administration, as described in EXAMPLE 47. […]

[2] = pKa of formulated cationic lipids in lipid nanoparticles (TNS fluorescence assay); format: physicochemical
Description: As described elsewhere, the pKa of formulated cationic lipids is correlated with the effectiveness of LNPs for delivery of nucleic acids (see Jayaraman et al, Angewandte Chemie, International Edition (2012), 51(34), 8529-8533; Semple et al, Nature Biotechnology 28, 172-176 (2010)). The preferred range of pKa is ˜5 to ˜7. […] Lipid nanoparticles comprising of cationic lipid/DSPC/cholesterol/PEG-lipid (50/10/38.5/1.5 mol %) in PBS at a concentration of 0.4 mM total lipid are prepared using the in-line process as described in EXAMPLE 47. TNS was prepared as a 100 μM stock solution in distilled water. Vesicles were diluted to 24 μM lipid in 2 mL of buffered solutions containing, 10 mM HEPES, 10 mM MES, 10 mM ammonium acetate, 130 mM NaCl, where the pH ranged from 2.5 to 11. An aliquot of the TNS solution was added to give a final concentration of 1 μM and following vortex mixing fluorescence intensity was measured at room temperature in a SLM Aminco Series 2 Luminescence Spectrophotometer using excitation and emission wavelengths of 321 nm and 445 nm. A sigmoidal best fit analysis was applied to the fluorescence data and the pKa was measured as the pH giving rise to half-maximal fluorescence intensity (see FIG. 2).

[3] = tested on: hFIX protein in mouse plasma; experiment: LNP delivery of human FIX mRNA, hFIX protein in mouse plasma by ELISA; format: in vivo
Description: The LNPs with cationic lipids shown in Table 7 are formulated with mRNA coding for human FIX (e.g. TriLink Biotechnologies product L-6110) using the following molar ratio of lipids: 50% lipid/10% distearoylphosphatidylcholine (DSPC)/38.5% Cholesterol/1.5% PEG-lipid as described in EXAMPLE 47. Plasma protein is analyzed by ELISA using a commercially available kit (e.g. Abcam ab108831) as per the suppliers instructions. […] The duration of the hFIX at these levels is ˜15 hours or longer.

[4] = tested on: cherry red (CR) red fluorescent protein expression in liver; experiment: LNP activity using cherry red (CR) mRNA, liver sections by confocal fluorescence microscopy; format: in vivo, C57BL/6 mice
Description: LNPs using compound 6 are formulated as described in EXAMPLE 47 with mRNA coding for a red fluorescent protein called cherry red (CR, e.g. TriLink Biotechnologies product L-6113). In vivo studies are conducted as described in EXAMPLE 47 and sections of liver tissue are processed and observed by confocal fluorescence microscopy at 4, 6 and 24 hours post administration. Expression levels peaked at around 6 hours and maintained to at least 24 hours.

[5] = Table 3, LNP with 1.5% PEG-DMA (42-6), FLuc mRNA
[6] = Table 5, LNP with 1.5% PEG-lipid (42-6)
[7] = Table 6, LNP with 1.5% PEG-lipid (42-6)

pKa ([2]; Table 3, in LNP cationic lipid/DSPC/cholesterol/PEG-lipid 50/10/38.5/1.5 mol %, read-out: pKa): 6.12
pKa ([2]; Table 5, in LNP): 6.12
pKa ([2]; Table 6, in LNP): 6.12
Compound: CCCCCCCCC(CCCCCC)C(=O)OCCCCCCCCCN(CCCCCCCCCOC(=O)C(CCCCCC)CCCCCCCC)CCN(C)C (stereo not drawn) [Compound 6]
Liver Luc @ 0.3 mg/kg (ng luc/g liver) [1, 5]: 2015 ± 135 ng luc/g liver
Liver Luc @ 1.0 mg/kg (ng luc/g liver) [1, 5]: 16006 ± 2487 ng luc/g liver
Liver Luc @ 0.3 mg/kg (ng luc/g liver) [1, 6]: 2015 ± 135 ng luc/g liver
Liver Luc @ 1.0 mg/kg (ng luc/g liver) [1, 6]: 16006 ± 2487 ng luc/g liver
Liver Luc @ 0.3 mg/kg (ng luc/g liver) [1, 7]: 2015 ± 135 ng luc/g liver
Liver Luc @ 1.0 mg/kg (ng luc/g liver) [1, 7]: 16006 ± 2487 ng luc/g liver
Human Factor IX @ 0.3 mg/kg (ng mL in plasma) ([3]; 0.3 mg/kg hFIX mRNA LNP, ELISA): 713 ± 148 ng·mL
Human Factor IX @ 1.0 mg/kg (ng mL in plasma) ([3]; 1.0 mg/kg hFIX mRNA LNP, ELISA): 2697 ± 345 ng·mL
measured levels of hFIX expression (assessment) ([3]; hFIX mRNA LNPs): clinically relevant
time of peak expression levels ([4]; liver sections observed at 4, 6 and 24 hours post administration): around 6 hours
distribution of expression in tissue sections ([4]; liver sections, confocal fluorescence microscopy): homogeneous expression throughout the liver
expression maintained to ([4]; liver sections, post administration): at least 24 hours
